≈ marks a conversion by molar mass, not a printed value.
How the values were obtained:
Format in all cases: cell-based
[1] = system: HCT-116 human colon adenocarcinoma cancer cells; assay: anticancer activity against HCT-116 colon cancer cell line; conditions: for growth inhibition against the cancer cell line HCT-116 human colon carcinoma: in words
Procedure: For extraction of compounds from the CNQ140 actinomycete, the following protocol was used. Pre-washed XAD-7 resin (20 g) was added to 1 liter of culture and mixed for 1 hour. The contents were collected by filtration, washed with deionized water (1 liter) and eluted with acetone (250 ml). The extraction liquid from each successive extraction step (as shown in FIG. 1) was tested for anticancer activity (IC50) against HCT-116 colon cancer cell line. […] A second extraction step using C-18 reverse phase HPLC and a solvent of 65% MeCN in water yielded four distinct compounds with activity against the colon cancer cell line. […] The chemical structures of these compounds appear below:
(§1) As shown by the data in Table 1 below the invention therapeutic compounds have both anticancer and antibiotic activity, as illustrated in tests against HCT-116 human colon adenocarcinoma cancer cells (HCT-116); methicillin resistant Staphylococcus aureus (MRSA); and vancomycin-resistant Enterococcus faecium (VREF):
Pre-washed XAD-7 resin (20 g) was added to 1 liter of culture and mixed for 1 hour. The contents were collected by filtration, washed with deionized water (1 liter) and eluted with acetone (250 ml). The extraction liquid from each successive extraction step (as shown in FIG. 1) was tested for anti-cancer activity (IC50) against HCT-116 colon cancer cell line. […] A second chromatographic purification step for fraction CNQ140-3, using C-18 reverse phase HPLC and 65% MeCN in water, yielded four distinct CNQ140 macrolide polyol-polyene compounds with activity against the colon cancer cell line: […]

[2] = system: methicillin resistant Staphylococcus aureus (MRSA); assay: antibiotic activity (MIC) against MRSA
From the text: as §1
(§2) As shown by the data in Table 1 below the invention therapeutic compounds have both anticancer and antibiotic activity, as illustrated in tests against HCT-116 colon cancer cells (HCT-116); methicillin resistant Staphylococcus aureus (MRSA); and vancomycin-resistant Enterococcus faecium (VREF).

[3] = system: vancomycin-resistant Enterococcus faecium (VREF); assay: antibiotic activity (MIC) against VREF
From the text: as §1, §2

all 60 cell lines = assay: National Cancer Institute's 60 cancer cell line in vitro cytotoxicity assay
From the text: Compounds CNQ140.996a, CNQ140.996b, and CNQ140.996c were examined in the National Cancer Institute's 60 cancer cell line, in vitro, cytotoxicity assay. The following cytoxicity data were derived for the invention compounds: […]

Row | Structure (SMILES) | IC50 ([1]; Homo sapiens, HCT-116, HCT-116 cells, read-out: HCT-116 (IC50 microgm/ml)) | growth inhibition against the cancer cell line HCT-116 human colon carcinoma [1] | MRSA (MIC microgm/ml) [2] | VREF (MIC microgm/ml) [3] | GI50 (all 60 cell lines; average over NCI 60 cell lines, read-out: Average GI50 against all 60 cell lines) | tissue type selectivity (all 60 cell lines; most sensitive: 6 of the 8 melanoma cancer types (LOX IMVI, M14, SK-MEL-2, SK-MEL-5, UACC-257, UACC-62)) | HCT-116 (IC50 microgm/ml) ([1]; HCT-116 cells)
1 | CCC(O)CC1CC(O)C/C=C/[C@@H](O)C[C@@H](O)C/C(C)=C/C=C/C=C/C=C\c2cccc(O)c2C(=O)OC(CC(C)O)CC(O)C/C=C/[C@@H](O)C[C@@H](O)C/C(C)=C/C=C/C=C/C=C\c2cccc(O)c2C(=O)O1 (stereo partly shown) [CNQ140.996c] | 2.6 µg/mL (≈ 2.57 µM) | showed growth inhibition | 0.25 microgm/ml | 0.25 microgm/ml | 5.1 nM | significant tissue type selectivity | 
2 | CCC(O)CC1CC(O)C/C=C/[C@@H](O)C[C@@H](O)C/C(C)=C/C=C/C=C/C=C\c2cccc(O)c2C(=O)OC(CC(C)O)CC(O)C/C=C/[C@@H](O)C[C@@H](O)C/C(C)=C/C=C/C=C/C=C\c2cccc(O)c2C(=O)O1 (stereo partly shown) [CNQ140.1010] |  | showed growth inhibition | 0.25 microgm/ml | 0.25 microgm/ml |  |  | 3.1 microgm/ml

Reference: patent US7521414B2, “Polyol macrolide antitumor-antibiotics from the marine actinomycete strain CNQ140” (priority 2003, dated 2009)
